This passage reports TGI and GI50 results from PubChem BioAssay (NCI).

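Results reflect a 48-hour exposure of cells in 96-well plates to compound at five concentrations. The concentration for 50% growth inhibition is given as GI50. TGI: concentration producing complete growth inhibition.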 Some results are limits rather than exact numbers.

Among the test systems are NCI-H226 lung; SF-295 CNS; SK-MEL-28 melanoma; SK-OV-3 ovarian; SN12C renal; UO-31 renal; NCI-H522 lung; SR leukemia; HS 578T breast.
Common to all, as to assay: DTP human tumour cell line panel, 48 h

One may read the TGI as the concentration giving total growth inhibition. A low value points to more potent growth arrest. Consider `Cc1cc(Cl)cc2c1NC(=O)C2(O)CC(=O)c1ccc(F)cc1` (centres undefined), for which the TGI with NCI-H226 lung, in the assay on SF-295 CNS, in the assay with SK-MEL-28 melanoma, in the assay with SK-OV-3 ovarian, in the assay on SN12C renal and in the assay with UO-31 renal was greater than 100 µM in each case.

For the compound `CN(C)CCC(=O)N1CCc2c([nH]c3ccccc23)C1c1cccnc1` (centres undefined), the total growth inhibition concentration (TGI) with NCI-H522 lung, with SF-295 CNS, with SK-MEL-28 melanoma, with SK-OV-3 ovarian, in the assay on SN12C renal and with SR leukemia was greater than 100 µM each time. Moreover, the TGI with UO-31 renal is greater than 100 µM.

On to `CC1NCCc2c1[nH]c1cc(O)ccc21` (centres undefined), for which the concentration for total growth inhibition (TGI) in the assay with NCI-H226 lung, in the assay on SF-295 CNS, with SK-MEL-28 melanoma, in the assay on SK-OV-3 ovarian, in the assay on SN12C renal and in the assay with UO-31 renal was greater than 100 µM in each case.

Regarding `CCOC(=O)N1CCc2cc(OC)c(OC)cc2/C1=C/c1ccc(OC)c(OC)c1`, the TGI in the assay on NCI-H226 lung, with NCI-H522 lung, in the assay with SF-295 CNS, in the assay with SK-MEL-28 melanoma, in the assay with SK-OV-3 ovarian and with SN12C renal was greater than 100 µM throughout. Further, the total growth inhibition concentration (TGI) in the assay on SR leukemia and in the assay on UO-31 renal was greater than 100 µM each time.

As to `O=C(Nc1ccccc1[N+](=O)[O-])C(=O)C(C(=O)c1ccccc1-c1ccccc1)C1OC(=O)c2ccccc21` (centres undefined), the TGI is 21.3 µM in the assay with NCI-H226 lung; 25.3 µM in the assay with NCI-H522 lung; 39.3 µM in the assay on SF-295 CNS; 37.7 µM in the assay with SK-MEL-28 melanoma; greater than 100 µM in the assay on SK-OV-3 ovarian; 30.3 µM in the assay with SN12C renal. The TGI with SR leukemia turned out to be 49 µM; in the assay on UO-31 renal, 29.8 µM.

For the compound `O=C1[C@@H]2C(c3ccncc3)=NO[C@@H]2C(=O)N1c1ccc(Cc2ccc(N3C(=O)[C@H]4C(c5ccncc5)=NO[C@H]4C3=O)cc2)cc1`, the TGI with NCI-H226 lung, in the assay with SF-295 CNS, in the assay with SK-MEL-28 melanoma, in the assay on SK-OV-3 ovarian, with SN12C renal and with UO-31 renal was greater than 100 µM throughout.

A word on the GI50: it is the concentration that inhibits growth by half. For the compound `N#CSCC1CC(O)(c2ccccc2)CC(c2ccc(Cl)cc2)O1` (centres undefined), the GI50 was 3.24 µM in the assay on HS 578T breast; 5.79 µM in the assay with NCI-H226 lung; 1.36 µM in the assay with NCI-H522 lung; 3.28 µM in the assay with SF-295 CNS; 1.84 µM in the assay with SK-MEL-28 melanoma; 14.3 µM in the assay on SK-OV-3 ovarian. The GI50 was 1.81 µM with SN12C renal, 1.65 µM in the assay with SR leukemia and 1.61 µM with UO-31 renal. Also, the TGI in the assay on HS 578T breast turned out to be 13.2 µM; in the assay on NCI-H226 lung, 35.6 µM; in the assay on NCI-H522 lung, 2.83 µM; in the assay with SF-295 CNS, 12.7 µM; in the assay with SK-MEL-28 melanoma, 4.57 µM; in the assay with SK-OV-3 ovarian, 27.5 µM. In addition, the figures for the total growth inhibition concentration (TGI) in the assay with SN12C renal, in the assay on SR leukemia and in the assay with UO-31 renal were 3.77 µM, 5.02 µM and 4.84 µM, respectively.

For the compound `CCCC(=O)O[C@]1(C)CC[C@@H]2[C@H]3[C@@H]1[C@@H]1C/C(C)=C\CC[C@](C)(OC(=O)[C@@H]2C)[C@H]3O1`, the GI50 in the assay with HS 578T breast is 40 µM; in the assay with NCI-H226 lung it was 41.3 µM; with NCI-H522 lung, 19.6 µM; in the assay on SF-295 CNS, 41.2 µM; in the assay with SK-MEL-28 melanoma it was 78.5 µM; with SK-OV-3 ovarian, greater than 100 µM. Also, the results for the GI50 in the assay with SN12C renal, in the assay with SR leukemia and in the assay with UO-31 renal were 47.9 µM, 13.2 µM and 23.6 µM, respectively. In addition, the total growth inhibition concentration (TGI) in the assay on HS 578T breast is greater than 100 µM; with NCI-H226 lung it was greater than 100 µM; with NCI-H522 lung, 75.5 µM; in the assay on SF-295 CNS, greater than 100 µM; with SK-MEL-28 melanoma, greater than 100 µM; with SK-OV-3 ovarian, greater than 100 µM. The TGI with SN12C renal was greater than 100 µM; in the assay on SR leukemia, 26.9 µM; with UO-31 renal it was 65.6 µM.

For the compound `C/C(CC(=O)Nc1ccccc1)=N\NC(N)=S`, the concentration for total growth inhibition (TGI) in the assay with NCI-H226 lung, in the assay with NCI-H522 lung, with SF-295 CNS, in the assay with SK-MEL-28 melanoma, in the assay with SK-OV-3 ovarian and in the assay on UO-31 renal was greater than 100 µM in each case.

In the case of `Cc1cccc(C)c1NC(=O)CCCC(=O)C(C#N)c1ccc(Cl)cc1` (centres undefined), the total growth inhibition concentration (TGI) with NCI-H226 lung, in the assay on NCI-H522 lung, in the assay with SF-295 CNS, in the assay with SK-MEL-28 melanoma, with SK-OV-3 ovarian and in the assay on SN12C renal was greater than 100 µM throughout. Moreover, the TGI in the assay on SR leukemia and in the assay on UO-31 renal was greater than 100 µM in each case.

For the compound `C=C[Si](C)(C)COC(=O)/C(C#N)=C/C=C/c1ccccc1`, the total growth inhibition concentration (TGI) in the assay on NCI-H226 lung, in the assay on NCI-H522 lung, with SF-295 CNS, in the assay with SK-MEL-28 melanoma, in the assay with SK-OV-3 ovarian and in the assay on SN12C renal was greater than 100 µM in each case. Further, the TGI in the assay on SR leukemia is 79.9 µM; in the assay on UO-31 renal, greater than 100 µM.

For `CC1(C)Cc2nnsc2C2=C1C(=O)CCS2`, the TGI in the assay with NCI-H522 lung, with SF-295 CNS, in the assay on SK-MEL-28 melanoma, in the assay with SK-OV-3 ovarian, in the assay with SN12C renal and in the assay with UO-31 renal was greater than 100 µM in each case.

`NCCn1cnc2nc(NC(=O)c3ccccc3)[nH]c(=O)c21`: the TGI in the assay with NCI-H226 lung, with SF-295 CNS, with SK-MEL-28 melanoma, in the assay with SN12C renal, in the assay on SR leukemia and in the assay on UO-31 renal was greater than 100 µM each time.

With `CCOC(=O)C1=C(C)N(NC(=O)OC)C2(N)N(NC(=O)OC)C(C)=C(C(=O)OCC)C12C#N` (centres undefined), the TGI with NCI-H226 lung, with NCI-H522 lung, with SF-295 CNS, with SK-MEL-28 melanoma, in the assay on SK-OV-3 ovarian and with SN12C renal was greater than 100 µM in each case. In addition, the total growth inhibition concentration (TGI) in the assay on SR leukemia and with UO-31 renal was greater than 100 µM in each case.
